Measured values reported in article PMC11184559, “Identification and Validation of Compounds Targeting Leishmania major Leucyl-Aminopeptidase M17” (ACS Infectious Diseases, 2024).
Read-outs that look alike come from different tables or passages of the source.

Legend:
[1] = tested on: LmLAP-overexpressing L. major promastigotes; assay: Drug sensitivity assay (resazurin), LmLAP-overexpressing L. major promastigotes; assay type: cell-based; conditions: Leishmania major
Protocol: The basic L. major cytosolic leucyl aminopeptidase gene (LmjF.23.0950) was synthesized (GeneArt, Invitrogen) and cloned into the overexpression vector pIRT1_SAT by using BglII restriction sites. The pIRT1_SAT_LmLAP construct was sequenced to confirm correct sequence. Mid log phase L. major cells (1 × 10^7 cells) were transfected with 10 μg of heat-sterilized DNA using the Human T-Cell Nucleofector kit and AMAXA Nucleofector electroporator (program V-033). After a 24 h recovery period, nourseothricin was added to cultures to a final concentration of 100 μg/mL.
(§1) L. major promastigotes were seeded in 96-well plates at 5 × 10^4/mL, exposed to 2-fold serial dilutions of test compounds, and incubated at 28 °C for 72 h. Resazurin was, then, added to each well to a final concentration of 50 μM, and fluorescence was measured after 2–3 h (excitation of 528 nm and emission of 590 nm). The EC50 was calculated by processing the collected data by GRAFIT (version 5.0.4, Erithacus Software) and fitting them to the following two-parameter equation: [drawing 6] 6 where [I] is the inhibitor concentration, and m is the slope. Experiments were performed on at least three independent biological replicates. Data are presented as the weighted mean ± standard deviation.

[2] = tested on: RAW 264.7 murine macrophages; conditions: 100 μM, 48 h, MTT
From the text: Blank contains only culture medium. […] Each assay was developed in triplicate.

[3] = tested on: LmjF.33.2570 (metallo-peptidase, Clan MF, Family M17); assay: Isothermal TPP (iTPP) thermal stabilization, LmjF.33.2570; assay type: binding, Leishmania major; conditions: L. major promastigote lysate, 47 °C, compound at 10× EC50 vs DMSO
Protocol: (§2) Cell lysates were obtained as detailed above. Isothermal TPP assays were performed as previously described[29] but here lysates were incubated at two temperatures: 28 and 47 °C. The first temperature (28 °C) acts as a control temperature at which the protein levels are not altered by the presence of the test compound. The second temperature (47 °C) is the Leishmania spp. median Tm (melting temperature or temperature 50%) according to our interim data. […] These samples were aliquoted and submitted to a temperature shock at the designated temperature for 3 min, then 3 min at room temperature, and finally 3 min on ice. The soluble part was isolated by ultracentrifugation (100,000g, 20 min, 4 °C).
(§3) All aspects of sample processing, TMT-labeling, fractionation by HPLC into 10 fractions, LC-MS/MS, and protein identification and quantitation were described previously.[28],[68] Proteins with less than three peptides and those with increased stability at 28 °C were disregarded.
Proteins were identified by searching the MS and MS/MS data for the peptides against L. major strain Friedlin (TriTryp version 61, tritrypdb.org) using MaxQuant (http://maxquant.org/, version 2.1.4.0). All proteomics data sets have been deposited to the ProteomeXchange Consortium via the PRIDE[69] partner repository with the identifier PXD00000. Data were analyzed with Perseus v 1.6.15.[70] The reporter intensities of each protein were extracted and normalized to the control temperature reporter intensity (28 °C), then these normalized values were used to calculate the log2 transformed fold-changes (FC) of […] samples. Proteins stabilized (log2 FC > 1 in both replicates) were selected as putative hits.

[4] = tested on: L. donovani intracellular amastigotes; assay: Leishmania donovani intracellular (intramacrophage) assay, single concentration; assay type: cell-based; conditions: 96 h, intracellular amastigotes in macrophages, Hoechst imaging; for Inhibition of L. donovani proliferation (%): 50 μM; for inhibition at 50 µM: Leishmania donovani, Macrophage, read-out: Inhibition of L. donovani proliferation (%)
Protocol: The effect of the compounds selected as inhibitors of rLmLAP on the proliferation of L. donovani amastigotes was evaluated at a concentration of 50 μM. Macrophage cultures (ECACC, catalog number: 88081201) were used as host cells. Parasites were incubated with 4.27× 10^7 macrophages, at a multiplicity of infection (MOI) of 5, at 37 °C with 5% CO2, overnight in DMEM medium supplemented with 4.5 g/L glucose and glutamine and 10% FBS, in a Millicell HY T-600 three-layer culture flask (Merck Millipore, Solna, Sweden). […] Macrophages were incubated for another 24 h in the above conditions with 133 μL of fresh DMEM medium prewarmed at 37 °C and supplemented with 10% FBS to obtain a high count of intracellular amastigotes.
Forty-two hours after macrophage infection, compounds (50 μM, 250 nL in DMSO) were dispensed using LabCyte ECHO into each well of 384-well dark flat bottom plates (Corning, New York, USA). The plates were incubated at 37 °C, 5% CO2, for 4 h (without compounds, with DMSO, to determine the initial level of infection) and for 96 h (with and without compounds).

rLmLAP = rLmLAP (Leishmania major, UniProt Q7KF27); assay: Mode of inhibition studies for rLmLAP (Leu-pNA, Lineweaver-Burk); assay type: biochemical; conditions: for Modality of rLmLAP inhibition: Lineweaver-Burk, 0, 15, 30, 60 μM inhibitor, L-Leu-pNA 0.59-300 μM
Sequence of rLmLAP (Q7KF27 entry or part of it): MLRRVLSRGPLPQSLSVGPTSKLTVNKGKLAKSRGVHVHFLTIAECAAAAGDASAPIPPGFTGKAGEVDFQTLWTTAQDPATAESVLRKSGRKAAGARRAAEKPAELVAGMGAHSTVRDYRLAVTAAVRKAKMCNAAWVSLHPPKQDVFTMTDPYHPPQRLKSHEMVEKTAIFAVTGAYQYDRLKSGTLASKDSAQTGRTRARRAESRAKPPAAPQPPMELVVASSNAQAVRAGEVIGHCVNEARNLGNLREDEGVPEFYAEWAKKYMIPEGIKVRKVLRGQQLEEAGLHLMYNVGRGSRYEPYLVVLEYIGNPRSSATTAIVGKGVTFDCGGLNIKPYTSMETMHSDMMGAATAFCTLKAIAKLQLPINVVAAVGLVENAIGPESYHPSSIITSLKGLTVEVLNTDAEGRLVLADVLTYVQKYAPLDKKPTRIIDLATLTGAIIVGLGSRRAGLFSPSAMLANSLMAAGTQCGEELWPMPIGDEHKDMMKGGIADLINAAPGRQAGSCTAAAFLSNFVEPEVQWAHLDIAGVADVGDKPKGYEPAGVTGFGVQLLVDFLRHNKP
Protocol: The aminopeptidase enzymatic activity was determined by a continuous kinetic method.[26] The reaction was performed in 50 mM sodium phosphate, pH 7.0, in the presence of 13.9 nM rLmLAP (which is within the linear range of the v0 vs. enzyme concentration relationship) and 30 μM (1 appKM; 23) of the chromogenic substrate L-Leu-p-nitroanilide (Leu-pNA; 2 μL, in DMSO). The reaction was carried out at 25 °C in 96-well microplates (200 μL final volume), in a microplate spectrophotometer (FLUOstar OPTIMA, Germany). The increase of the absorbance at 405 nm (due to the release of the pNA chromogen) was recorded every 15 s for 5 min. Only the linear ranges of the typical curves, corresponding to substrate consumptions lower than 5% (v0 conditions) were used to measure the reaction velocity. Slopes with determination coefficients (R^2) < 0.98 were not considered for linear fits.
For the determination of the inhibition mode, inhibitors were used at 0, 15, 30, and 60 μM. For each inhibitor concentration, the substrate Leu-pNA was added at different concentrations (0.59–300 μM). Experimental data were transformed, and the Lineweaver–Burk double reciprocal plots were constructed. The following equation was used: [drawing 3] 3 where appvmax is the apparent maximal rate of the reaction, and [S]0 is the initial substrate concentration.[26] The inhibition type was determined graphically from the lines of the double reciprocal plots.[26]

[5] = tested on: parental (WT) L. major promastigotes; assay: Drug sensitivity assay (resazurin), parental L. major promastigotes; assay type: cell-based
Protocol: L. major promastigotes were cultured in HOMEM (Gibco) supplemented with 10% heat inactivated FBS at 28 °C.
as §1

[6] = tested on: LmjF.23.0040 (peroxidoxin); assay: Isothermal TPP (iTPP) thermal stabilization, LmjF.23.0040; assay type: binding, Leishmania major; conditions: L. major promastigote lysate, 47 °C, compound at 10× EC50 vs DMSO
Protocol: as §2, §3
Proteins were identified by searching the MS and MS/MS data for the peptides against L. major strain Friedlin (TriTryp version 61, tritrypdb.org) using MaxQuant (http://maxquant.org/, version 2.1.4.0). All proteomics data sets have been deposited to the ProteomeXchange Consortium via the PRIDE[69] partner repository with the identifier PXD00000. Data were analyzed with Perseus v 1.6.15.[70] […]

[7] = 72 h, read-out: EC50 (weighted mean), LmLAP-overexpressing (LAP-OE) L. major promastigotes
[8] = read-out: EC50 (LAP-OE), representative curve
[9] = Leishmania major; value of the specific curve shown in Figure 4; read-out: EC50 (WT), representative curve

## COc1ccc(Cc2c(N)nc(-c3ccccn3)nc2N)cc1 [DDD00057570]
[1]; [7]
  EC50: 7 ± 1 µM
[1]; [8]
  EC50: 6.9 ± 1 µM
[2]
  Maximum inhibitory effect, RAW 264.7 macrophage cell line: 52%
[3]
  Enrichment (log2) replica A, LmjF.33.2570: 1.38 log2
  Enrichment (log2) replica B, LmjF.33.2570: 1.17 log2
[4]
  Inhibition of L. donovani proliferation (%): 98.4 ± 2.9%
  inhibition at 50 µM: 98 ± 2.9%
rLmLAP
  Modality of rLmLAP inhibition: noncompetitive inhibitor
rLmLAP; α > 1: preferential binding to free enzyme
  α (noncompetitive inhibition mechanism): > 1
[5]; Leishmania major, 72 h, resazurin; weighted mean ± SD (n = 5); read-out: EC50 (weighted mean), parental (WT) L. major promastigotes
  EC50: 1.8 ± 0.2 µM
[5]; [9]
  EC50: 1.1 ± 0.2 µM

## O=C(c1cccs1)N(CCCn1ccnc1)c1nc2ccccc2s1 [DDD00097924]
[6]
  Enrichment (log2) replica A, LmjF.23.0040: 1.31 log2
  Enrichment (log2) replica B, LmjF.23.0040: 1.21 log2
[1]; [7]
  EC50: 11 ± 1 µM
[1]; [8]
  EC50: 7.3 ± 1.4 µM
[3]
  Enrichment (log2) replica A, LmjF.33.2570: 1.97 log2
  Enrichment (log2) replica B, LmjF.33.2570: 1.76 log2
[4]
  Inhibition of L. donovani proliferation (%): 77.8 ± 3.1%
  inhibition at 50 µM: 78%
rLmLAP
  Modality of rLmLAP inhibition: competitive mode inhibition
[5]; Leishmania major; 72 h, resazurin; weighted mean ± SD (n = 5); read-out: EC50 (weighted mean), parental (WT) L. major promastigotes
  EC50: 3 ± 0.2 µM
[5]; [9]
  EC50: 1.83 ± 0.2 µM
